Experiment [1] addresses T1, DNA gyrase (Escherichia coli, UniProt P0AES4+P0AES6). The experiment in a line: Inhibition of Quinolone resistant gyrase Supercoiling Activity in Escherichia coli. Type of experiment: protein-complex assay.
A further experiment relates to Pseudomonas aeruginosa. Briefly: Minimum inhibitory concentration against Pseudomonas aeruginosa, strain PS96. Format: functional.
Experiment [2] addresses T1, DNA gyrase. The experiment in a line: Inhibition of Wild Type DNA gyrase Supercoiling Activity in Escherichia coli. Type of experiment: protein-complex assay.
The subject of experiment [3] is Staphylococcus aureus. The experiment in a line: Minimum inhibitory concentration against Staphylococcus aureus - methicillin resistant Ciprofloxacin resistant, strain MI339. Type of experiment: functional.
Experiment [4] relates to Streptococcus pneumoniae. The experiment in a line: Minimum inhibitory concentration against Streptococcus pneumoniae - penicillin sensitive, strain STP64. Format: functional.
A further experiment deals with Escherichia coli. Briefly: Minimum inhibitory concentration against Escherichia coli, strain ES142. Format: functional.
The test system of experiment [5] is Staphylococcus aureus. The experiment in a line: Minimum inhibitory concentration against Staphylococcus aureus - methicillin resistant Ciprofloxacin sensitive strain MI300. Format: functional.
Experiment [6] concerns Streptococcus pneumoniae. Briefly: Minimum inhibitory concentration against Streptococcus pneumoniae - penicillin resistant, strain STP51. Type of experiment: functional.
Experiment [7] concerns Staphylococcus aureus. Briefly: Minimum inhibitory concentration against Staphylococcus aureus (Methicillin resistant Ciprofloxacin sensitive) strain MI300. Type of experiment: functional.
For experiment [8], the system named is Streptococcus pneumoniae. Briefly: Minimum inhibitory concentration against Streptococcus pneumoniae (Penicillin sensitive) strain STP64. Format: functional.
For experiment [9], the system named is Staphylococcus aureus. The experiment in a line: Minimum inhibitory concentration against Staphylococcus aureus (Methicillin resistant Ciprofloxacin resistant) strain MI339. Format: functional.
Experiment [10] relates to Streptococcus pneumoniae. Briefly: Minimum inhibitory concentration against Streptococcus pneumoniae (Penicillin resistant) strain STP51. Type of experiment: functional.

For orientation: IC50 means the midpoint of a concentration-inhibition curve. A higher IC50 goes with weaker potency. The MIC is the least concentration at which growth counts as inhibited.

Molecules are shown by their SMILES. Values after ≈ are worked out from the molar mass of the structure shown. Bounds are passed on as bounds.

In the case of `CC[C@@H]1CCN(c2ccc3c(=O)c(C(=O)O)cn(C4CC4)c3c2Cl)C[C@H]1N`, the results for the IC50 against DNA gyrase [1] and at DNA gyrase [2] were 8.21 µM and 4.1 µM, respectively. Further, the MIC was 0.125 µg/mL (≈ 0.321 µM) with Pseudomonas aeruginosa; 0.31 µg/mL (≈ 0.795 µM) with Staphylococcus aureus [3]; under 0.004 µg/mL with Streptococcus pneumoniae [4]; under 0.004 µg/mL against Escherichia coli; under 0.004 µg/mL in the experiment on Staphylococcus aureus [5].

Take `N[C@H]1CCCN(c2nc3c(cc2F)c(=O)c(C(=O)O)cn3C2CC2)C1`: the 50% inhibitory concentration (IC50) is over 296 µM against DNA gyrase [1] and 4.62 µM against DNA gyrase [2]. In addition, the MIC is 1 µg/mL (≈ 2.89 µM) with Pseudomonas aeruginosa; over 4 µg/mL against Staphylococcus aureus [3]; 4 µg/mL (≈ 11.5 µM) against Streptococcus pneumoniae [4]; 0.125 µg/mL (≈ 0.361 µM) in the experiment with Escherichia coli; 2 µg/mL (≈ 5.77 µM) with Staphylococcus aureus [5]; 4 µg/mL (≈ 11.5 µM) against Streptococcus pneumoniae [6].

Turning to `O=C(O)c1cn(C2CC2)c2c(Cl)c(N3CCNCC3)ccc2c1=O`, the MIC against Pseudomonas aeruginosa turned out to be 0.5 µg/mL (≈ 1.44 µM); against Staphylococcus aureus [3], 8 µg/mL (≈ 23 µM); in the experiment on Streptococcus pneumoniae [4], 4 µg/mL (≈ 11.5 µM); with Staphylococcus aureus [5], 0.25 µg/mL (≈ 0.719 µM).

On to `N[C@H]1CCCN(c2ccc3c(=O)c(C(=O)O)cn(C4CC4)c3c2Cl)C1`, for which the results for the IC50 against DNA gyrase [1] and against DNA gyrase [2] were 35.4 µM and 8.84 µM, respectively. The minimum inhibitory concentration (MIC) against Pseudomonas aeruginosa was 0.5 µg/mL (≈ 1.38 µM); against Staphylococcus aureus [3] it was 1 µg/mL (≈ 2.76 µM); in the experiment with Streptococcus pneumoniae [4], 0.12 µg/mL (≈ 0.332 µM); with Escherichia coli it was 0.03 µg/mL (≈ 0.0829 µM); in the experiment with Staphylococcus aureus [5] it was 0.016 µg/mL (≈ 0.0442 µM); with Streptococcus pneumoniae [6], under 0.008 µg/mL.

For the compound `CC[C@@H]1CCN(c2c(F)cc3c(=O)c(C(=O)O)cn(C4CC4)c3c2F)C[C@H]1N`, the IC50 against DNA gyrase [1] is 32.7 µM; at DNA gyrase [2] it was 0.511 µM. The MIC in the experiment with Pseudomonas aeruginosa was found to be 0.75 µg/mL (≈ 1.92 µM); in the experiment on Staphylococcus aureus [3] it was 0.188 µg/mL (≈ 0.48 µM); in the experiment with Streptococcus pneumoniae [4] it was 0.023 µg/mL (≈ 0.0588 µM); in the experiment with Escherichia coli, 0.006 µg/mL (≈ 0.0153 µM); against Staphylococcus aureus [5], 0.006 µg/mL (≈ 0.0153 µM); against Streptococcus pneumoniae [6] it was 0.012 µg/mL (≈ 0.0307 µM).

Consider `COc1c(N2CCC[C@H](N)C2)c(F)cc2c(=O)c(C(=O)O)cn(C3CC3)c12`, for which the half-inhibitory concentration (IC50) against DNA gyrase [1] was 17 µM; at DNA gyrase [2], 4.26 µM. In addition, the MIC in the experiment on Pseudomonas aeruginosa is 1 µg/mL (≈ 2.66 µM); against Staphylococcus aureus [3], 0.5 µg/mL (≈ 1.33 µM); with Streptococcus pneumoniae [4], 0.125 µg/mL (≈ 0.333 µM); in the experiment on Escherichia coli, 0.031 µg/mL (≈ 0.0826 µM); against Staphylococcus aureus [5], 0.031 µg/mL (≈ 0.0826 µM); in the experiment on Streptococcus pneumoniae [6] it was 0.063 µg/mL (≈ 0.168 µM).

In the case of `COc1c(N2CC[C@@H]([C@@H](C)N)C2)c(F)cc2c(=O)c(C(=O)O)cn(C3CC3)c12`, the minimum inhibitory concentration (MIC) was 0.25 µg/mL (≈ 0.642 µM) against Pseudomonas aeruginosa; 0.016 µg/mL (≈ 0.0411 µM) against Staphylococcus aureus [3]; 0.008 µg/mL (≈ 0.0205 µM) with Streptococcus pneumoniae [4]; 0.008 µg/mL (≈ 0.0205 µM) in the experiment with Escherichia coli; 0.008 µg/mL (≈ 0.0205 µM) against Staphylococcus aureus [5]; 0.008 µg/mL (≈ 0.0205 µM) in the experiment with Streptococcus pneumoniae [6].

As to `CC[C@@H]1CCN(c2cc3c(cc2F)c(=O)c(C(=O)O)cn3C2CC2)C[C@H]1N`, the MIC was 1.5 µg/mL (≈ 4.02 µM) in the experiment on Pseudomonas aeruginosa; over 3 µg/mL in the experiment with Staphylococcus aureus [3]; 0.75 µg/mL (≈ 2.01 µM) against Streptococcus pneumoniae [4]; 0.012 µg/mL (≈ 0.0321 µM) against Escherichia coli; 0.094 µg/mL (≈ 0.252 µM) in the experiment on Staphylococcus aureus [5]; 0.375 µg/mL (≈ 1 µM) against Streptococcus pneumoniae [6].

For the compound `N[C@H]1CCCN(c2c(F)cc3c(=O)c(C(=O)O)cn(C4CC4)c3c2F)C1`, the MIC with Pseudomonas aeruginosa amounted to 0.5 µg/mL (≈ 1.38 µM); in the experiment with Escherichia coli, 0.03 µg/mL (≈ 0.0826 µM); in the experiment with Staphylococcus aureus [7], 0.13 µg/mL (≈ 0.358 µM); with Streptococcus pneumoniae [8] it was 0.06 µg/mL (≈ 0.165 µM); with Staphylococcus aureus [9], 4 µg/mL (≈ 11 µM); in the experiment with Streptococcus pneumoniae [10] it was 0.13 µg/mL (≈ 0.358 µM).

Turning to `CC[C@@H]1CCN(c2c(F)cc3c(=O)c(C(=O)O)cn(C4CC4)c3c2OC)C[C@H]1N`, the IC50 against DNA gyrase [1] was 15.9 µM; against DNA gyrase [2], 7.93 µM. Moreover, the MIC came to 1 µg/mL (≈ 2.48 µM) against Pseudomonas aeruginosa; 0.125 µg/mL (≈ 0.31 µM) against Staphylococcus aureus [3]; 0.031 µg/mL (≈ 0.0768 µM) in the experiment with Streptococcus pneumoniae [4]; 0.016 µg/mL (≈ 0.0397 µM) against Escherichia coli; 0.008 µg/mL (≈ 0.0198 µM) against Staphylococcus aureus [5]; 0.008 µg/mL (≈ 0.0198 µM) in the experiment on Streptococcus pneumoniae [6].

On to `CC[C@H]1CCN(c2ccc3c(=O)c(C(=O)O)cn(C4CC4)c3c2OC)C[C@H]1N`, for which the minimal inhibitory concentration (MIC) amounted to 4 µg/mL (≈ 10.4 µM) with Pseudomonas aeruginosa; 4 µg/mL (≈ 10.4 µM) in the experiment with Staphylococcus aureus [3]; 1 µg/mL (≈ 2.59 µM) in the experiment on Streptococcus pneumoniae [4]; 0.125 µg/mL (≈ 0.324 µM) against Escherichia coli; 0.25 µg/mL (≈ 0.649 µM) in the experiment with Staphylococcus aureus [5]; 0.5 µg/mL (≈ 1.3 µM) against Streptococcus pneumoniae [6].

Regarding `CC[C@@H]1CCN(c2nc3c(cc2F)c(=O)c(C(=O)O)cn3C2CC2)C[C@H]1N`, the IC50 on DNA gyrase [1] is over 273 µM; at DNA gyrase [2] it was 68.4 µM. The MIC against Pseudomonas aeruginosa is 4 µg/mL (≈ 10.7 µM); against Staphylococcus aureus [3], over 4 µg/mL; in the experiment on Streptococcus pneumoniae [4], 4 µg/mL (≈ 10.7 µM); with Escherichia coli it was 0.03 µg/mL (≈ 0.0801 µM); with Staphylococcus aureus [5], 0.25 µg/mL (≈ 0.668 µM); in the experiment on Streptococcus pneumoniae [6] it was 2 µg/mL (≈ 5.34 µM).

Regarding `COc1c(N2CCC[C@H](N)C2)ccc2c(=O)c(C(=O)O)cn(C3CC3)c12`, the values for the IC50 on DNA gyrase [1] and on DNA gyrase [2] were 35.8 µM and 17.9 µM, respectively. Besides, the MIC was 0.5 µg/mL (≈ 1.4 µM) against Pseudomonas aeruginosa; 1 µg/mL (≈ 2.8 µM) against Staphylococcus aureus [3]; 0.03 µg/mL (≈ 0.0839 µM) with Streptococcus pneumoniae [4]; 0.03 µg/mL (≈ 0.0839 µM) with Escherichia coli; under 0.06 µg/mL with Staphylococcus aureus [5]; under 0.008 µg/mL with Streptococcus pneumoniae [6].

Regarding `CC[C@@H]1CCN(c2ccc3c(=O)c(C(=O)O)cn(C4CC4)c3c2OC)C[C@H]1N`, the figures for the half-maximal inhibitory concentration (IC50) against DNA gyrase [1] and at DNA gyrase [2] were 33.2 µM and 8.3 µM, respectively. The MIC was 1 µg/mL (≈ 2.59 µM) with Pseudomonas aeruginosa; 0.25 µg/mL (≈ 0.649 µM) with Staphylococcus aureus [3]; under 0.003 µg/mL in the experiment on Streptococcus pneumoniae [4]; 0.006 µg/mL (≈ 0.0156 µM) against Escherichia coli; under 0.004 µg/mL against Staphylococcus aureus [5]; 0.008 µg/mL (≈ 0.0208 µM) against Streptococcus pneumoniae [6].

Turning to `O=C(O)c1cn(C2CC2)c2cc(N3CCNCC3)c(F)cc2c1=O` [CIPROFLOXACIN], the minimum inhibitory concentration (MIC) in the experiment on Pseudomonas aeruginosa turned out to be 0.12 µg/mL (≈ 0.362 µM); against Streptococcus pneumoniae [4], 0.25 µg/mL (≈ 0.754 µM); in the experiment with Staphylococcus aureus [5], 0.25 µg/mL (≈ 0.754 µM).

Turning to `NC1CCN(c2c(F)cc3c(=O)c(C(=O)O)cn(C4CC4)c3c2Cl)C1` (stereo not given) [CLINAFLOXACIN], the half-maximal inhibitory concentration (IC50) against DNA gyrase [1] was 2.73 µM; against DNA gyrase [2], 0.547 µM. The MIC with Pseudomonas aeruginosa turned out to be 0.06 µg/mL (≈ 0.164 µM); with Staphylococcus aureus [3] it was 0.5 µg/mL (≈ 1.37 µM); with Streptococcus pneumoniae [4] it was 0.03 µg/mL (≈ 0.082 µM); in the experiment with Escherichia coli, 0.015 µg/mL (≈ 0.041 µM); in the experiment on Staphylococcus aureus [5], 0.03 µg/mL (≈ 0.082 µM); against Streptococcus pneumoniae [6] it was 0.15 µg/mL (≈ 0.41 µM).

For `COc1c(N2CCNC(C)C2)c(F)cc2c(=O)c(C(=O)O)cn(C3CC3)c12` (stereo not given) [GATIFLOXACIN], the MIC against Pseudomonas aeruginosa worked out at 0.12 µg/mL (≈ 0.32 µM); against Staphylococcus aureus [3], 4 µg/mL (≈ 10.7 µM); in the experiment with Streptococcus pneumoniae [4], 0.12 µg/mL (≈ 0.32 µM); against Escherichia coli it was 0.015 µg/mL (≈ 0.04 µM); against Staphylococcus aureus [5], 0.06 µg/mL (≈ 0.16 µM).
